We go through one molecule from US4621094A, “Anti-histaminic pyridyl compounds” (priority 1984, dated 1986).

This assay deals with T1, H1 histamine receptor (Cavia porcellus, UniProt P31389).
T1 construct: The longitudinal muscle was isolated from the intact ileum of guinea pigs; from tissue; host or cells: ileum longitudinal muscle, guinea pig (Hartley, male 250-400 g)
Description: Antihistaminic activity: antagonism of histamine concentration-response curves in isolated guinea pig ileum longitudinal muscle (Schild plot). It counts as cell-based, guinea pigs. Conditions: negative log of molar antagonist concentration shifting the control histamine concentration-response curve 2X to the right; tissue incubated one hour with test compound; organ bath, 300 mg tension; read-out: pA2 (converted). How it is done:
The longitudinal muscle was isolated from the intact ileum of guinea pigs (Hartley, male 250-400 g) and placed in an organ bath under 300 mg tension. After one hour of equilibration, cumulative concentration-response curves (Van Rossum, J. M., Arch. Int. Pharmacodyn. Ther. 143, 299-330, 1963) to histamine were obtained. Following washing, the tissues were incubated for one hour with the test compound and then a second histamine concentration-response curve was run. Shifts to the right of the agonist concentration-response curve produced by the antagonists were used to construct Schild plots (Arunlakshana, O. And Schild, H. O., Br. J. Pharmacol: 14, 48-58, 1959 ). Regression of Log (dr-1) on Log [B], where dr is an equiactive response in the presence and absence of antagonist and [B] is the molar concentration of antagonist, allowed an estimate of pA2, i.e. the negative log of the concentration of antagonist which shifts the control histamine concentration-response curve 2X to the right.

T1 sequence (P31389 whole entry): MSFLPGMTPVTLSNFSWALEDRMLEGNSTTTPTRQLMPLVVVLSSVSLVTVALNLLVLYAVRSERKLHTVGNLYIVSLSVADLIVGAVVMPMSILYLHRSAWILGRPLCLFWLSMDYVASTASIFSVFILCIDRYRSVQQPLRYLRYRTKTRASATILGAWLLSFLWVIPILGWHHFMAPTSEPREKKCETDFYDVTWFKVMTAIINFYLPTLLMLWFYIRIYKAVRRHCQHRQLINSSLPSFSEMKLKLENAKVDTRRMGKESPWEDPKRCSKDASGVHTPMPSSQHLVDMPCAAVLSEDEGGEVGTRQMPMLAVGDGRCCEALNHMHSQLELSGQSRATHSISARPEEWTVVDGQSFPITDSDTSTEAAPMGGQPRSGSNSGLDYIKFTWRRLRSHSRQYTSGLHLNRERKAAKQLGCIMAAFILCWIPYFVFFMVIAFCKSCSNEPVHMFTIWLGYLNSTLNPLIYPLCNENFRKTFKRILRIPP

For `CN(C)CCC(c1ccc(Cl)cc1)c1cccc(/C=C/C(=O)O)n1` (stereo not shown) [(E)-6-(1-(4-chlorophenyl)-3-dimethylaminopropyl)-2-pyridyl acrylic acid], the Kb is 2000 nM.
